Experimental data taken from patent publication US10702526B2, “Inhibitors of immune checkpoint modulators and related methods” (eFFECTOR Therapeutics, Inc., priority 2015, dated 2020).
“Also recorded” adds a separate entry of the source.

Legend:
PD-L1 = PD-L1 expression in tumor cell lines (Western blot); format: cell-based, human; conditions: MDA-MB-231, HBL-1, A549, MDA-MB-361, AMO-1; 0.01-10 μM, 48 hours, vs DMSO
[1] = system: IL-2 production in primary T cells; assay: IL-2 ELISA on supernatants of activated primary T cells; format: cell-based, human; conditions: T cells activated with anti-CD3/anti-CD28 beads
Procedure: (§1) About 3×10^5 T cells were activated using anti-CD3/anti-CD28 magnetic beads as per manufacturer's protocol (Dynabeads®, Invitrogen, Carlsbad, Calif.). Briefly, a ratio of fresh primary T cells to beads used to activate the T cells was 1:1 (for every 80,000 T cells, 2 μl of beads were added). Test cells were treated simultaneously with various concentrations of MNK-specific inhibitor Compound 107 (0.01, 0.1, 1, 3 and 10 μM). After 48 hours, culture supernatants were harvested and examined via sandwich ELISA for the presence of IL-2 using human IL-2 ELISA DuoSet® (R&D Systems, Minneapolis, Minn.). […] After fixation, cells were washed twice with flow buffer and re-suspended in flow buffer and assessed for fluorescence using BD Accuri C6 cytometer. Data were analyzed using the C6 cytometer software (BD Biosciences, San Jose, Calif.).

CT26 tumor = CT26 tumor re-challenge of previously treated mice; format: in vivo, mouse
Procedure: Previously treated allograft mice that responded to therapy or were tumor-free from each treatment group (8 days post-treatment) were tested for development of long-term immune memory by re-implanting new CT26 tumors and assessing for tumor growth compared to naïve BALB/c mice. Briefly, treated mice were re-implanted and naïve were implanted for the first time with tumor cells in the left flank region in 0.1 ml of growth media and an equal 0.1 ml volume ratio of Matrigel® matrix (1:1 volume to volume ratio), as before. Tumors in these untreated mice were measured following implantation as described herein.

[2] = system: HLA class II protein HLA-DQA1; assay: HLA-DQA1 protein level in TMD8 cells (Western blot); format: cell-based, human
Procedure: The ability of MNK-specific inhibitor compounds to regulate the level of HLA class II proteins was evaluated in a diffuse large B-cell lymphoma (DLBCL) cell line, TMD8. Briefly, human DLBCL cell line TMD8 (ATCC), was cultured in RPMI media supplemented with penicillin G (100 U/ml), streptomycin (100 μg/ml), and 10% FBS in a humidified atmosphere of 5% CO2 maintained at 37° C. About 2-4×10^6 TMD8 cells were seeded in 10 cm plates 24 hours prior to drug treatment. The following day, cells were treated with either vehicle control (DMSO) or Compound 107 at the indicated concentration (FIG. 7). Cells were harvested 48 hours post-treatment.
Treated cells were harvested, washed with PBS and lysed in 1×RIPA buffer (Thermo Fisher) for 15 minutes at 4° C. Lysates were clarified by centrifugation for 15 min at 14,000×rpm and supernatants were collected. Protein concentration in the soluble fraction was determined using the BCA protein assay (Thermo Scientific). Proteins were resolved on 4-20% Bis-Tris gradient polyacrylamide gel (Invitrogen) and transferred to nitrocellulose membrane. […] The blots were washed, scanned, and specific proteins detected using the LI-COR Odyssey infrared imager. […]

[3] = system: IL-10 production in primary T cells; assay: IL-10 production by activated primary T cells; format: cell-based, human
primary T cells = assay: Primary T cell viability (fixable dead cell stain); format: cell-based; conditions: T cells activated with anti-CD3/anti-CD28 beads
Procedure: as §1

[4] = system: LAG3 expression on human Pan-T cells; assay: LAG3 expression on primary T cells activated with anti-CD3/anti-CD28 beads (flow cytometry); format: cell-based
Procedure: as §1

## Cc1cc(Nc2cc(N)ncn2)c(=O)n2c1C(=O)NC21CCCCC1.Cl [Compound 107]
PD-L1
  expression of PD-L1: reduced in a dose dependent manner
[1]
  IL-2 production: did not detectably alter IL-2 production
CT26 tumor; 8 days after tumor implant
  Mean Tumor Volume (mm^3) ± SEM: 22.4 ± 4.5 mm^3
CT26 tumor; animals with measurable tumor / group, no further drug treatment
  Tumor Formation: 0/4
[2]; Homo sapiens, TMD8, 48 h, read-out: EC50 of increase in HLA-DQA1 protein level
  EC50: ~300 nM
[2]; TMD8 cells, 48 hours, 300 nM or 10 μM
  HLA-DQA1 protein level: dose dependent increase
[3]
  % IL-10 Inhibition: ++++ (++++ = 75-100%)
  expression/production of IL-10: inhibited
[3]; Homo sapiens, T-cell, 10 μM, read-out: maximum inhibition of the production of IL-10
  inhibition at 10 µM: 96%
Primary T cells
  T cell viability (percentage of dead cells): no effect on T cell viability; also recorded: unaffected
[4]; CD3/CD28 antibody bead activated T cells, 10 μM
  reduction in the expression of LAG3: 62%
[4]; primary T cells, anti-CD3/anti-CD28 beads, 0.01-10 μM
  LAG3 expression: reduced in a dose dependent manner
